Data reported in article PMC10746543, “Design principles for cyclin K molecular glue degraders” (Nature Chemical Biology, 2023).
Several values for one entry are separate records, joined by “and”; a condition that tells them apart may be missing. Equal values may be shown once. Read-outs that look alike come from different tables or passages of the source.

Tests used:
CDK12–cyclin K = CDK12–cyclin K (Homo sapiens, UniProt Q9NYV4); experiment: Lanthascreen kinase binding assay, CDK12; settings: series r1, duplicates
CDK12–cyclin K, sequence (Q9NYV4 713-1052): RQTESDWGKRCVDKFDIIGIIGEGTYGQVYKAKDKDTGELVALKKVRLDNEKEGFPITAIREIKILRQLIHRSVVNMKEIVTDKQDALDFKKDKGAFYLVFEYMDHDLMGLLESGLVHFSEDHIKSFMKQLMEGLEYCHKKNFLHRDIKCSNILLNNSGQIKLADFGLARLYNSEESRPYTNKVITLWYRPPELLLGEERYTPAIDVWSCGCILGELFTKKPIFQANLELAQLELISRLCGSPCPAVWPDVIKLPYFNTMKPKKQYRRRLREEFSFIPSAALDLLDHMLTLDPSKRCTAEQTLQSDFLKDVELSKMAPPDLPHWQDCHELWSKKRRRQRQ
CDK12–cyclin K, sequence (O75909 1-267 partner limits assumed): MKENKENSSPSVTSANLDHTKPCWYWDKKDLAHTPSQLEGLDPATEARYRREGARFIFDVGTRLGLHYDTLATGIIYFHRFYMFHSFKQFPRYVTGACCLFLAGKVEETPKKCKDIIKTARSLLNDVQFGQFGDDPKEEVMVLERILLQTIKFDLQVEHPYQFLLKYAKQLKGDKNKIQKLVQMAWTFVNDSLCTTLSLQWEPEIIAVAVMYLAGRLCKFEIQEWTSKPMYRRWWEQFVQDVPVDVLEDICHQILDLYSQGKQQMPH
Protocol: (§1) Lanthascreen experiments were performed using commercially available reagents (Thermo Fisher) and according to the manufacturer’s instructions.

CDK9–cyclin T = biological target: T1, CDK9–cyclin T (Homo sapiens, UniProt P50750); experiment: Lanthascreen kinase binding assay, CDK9; settings: for Lanthascreen TR-FRET signal (raw ratio), sheet CDK9: first titration set (r1), duplicates
T1 construct: purchased Thermo Fisher
T1 sequence (P50750 whole entry): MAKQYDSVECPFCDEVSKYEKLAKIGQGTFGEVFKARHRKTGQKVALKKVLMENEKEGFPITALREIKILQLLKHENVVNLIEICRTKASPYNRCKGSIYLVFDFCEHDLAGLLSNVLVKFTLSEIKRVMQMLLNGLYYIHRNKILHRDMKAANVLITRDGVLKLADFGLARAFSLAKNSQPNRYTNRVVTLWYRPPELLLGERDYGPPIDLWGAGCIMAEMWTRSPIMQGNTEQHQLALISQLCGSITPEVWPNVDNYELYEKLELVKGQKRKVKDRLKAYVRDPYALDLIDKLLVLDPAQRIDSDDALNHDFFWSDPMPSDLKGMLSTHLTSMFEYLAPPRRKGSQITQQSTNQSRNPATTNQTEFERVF
T1 sequence (O60563 whole entry partner): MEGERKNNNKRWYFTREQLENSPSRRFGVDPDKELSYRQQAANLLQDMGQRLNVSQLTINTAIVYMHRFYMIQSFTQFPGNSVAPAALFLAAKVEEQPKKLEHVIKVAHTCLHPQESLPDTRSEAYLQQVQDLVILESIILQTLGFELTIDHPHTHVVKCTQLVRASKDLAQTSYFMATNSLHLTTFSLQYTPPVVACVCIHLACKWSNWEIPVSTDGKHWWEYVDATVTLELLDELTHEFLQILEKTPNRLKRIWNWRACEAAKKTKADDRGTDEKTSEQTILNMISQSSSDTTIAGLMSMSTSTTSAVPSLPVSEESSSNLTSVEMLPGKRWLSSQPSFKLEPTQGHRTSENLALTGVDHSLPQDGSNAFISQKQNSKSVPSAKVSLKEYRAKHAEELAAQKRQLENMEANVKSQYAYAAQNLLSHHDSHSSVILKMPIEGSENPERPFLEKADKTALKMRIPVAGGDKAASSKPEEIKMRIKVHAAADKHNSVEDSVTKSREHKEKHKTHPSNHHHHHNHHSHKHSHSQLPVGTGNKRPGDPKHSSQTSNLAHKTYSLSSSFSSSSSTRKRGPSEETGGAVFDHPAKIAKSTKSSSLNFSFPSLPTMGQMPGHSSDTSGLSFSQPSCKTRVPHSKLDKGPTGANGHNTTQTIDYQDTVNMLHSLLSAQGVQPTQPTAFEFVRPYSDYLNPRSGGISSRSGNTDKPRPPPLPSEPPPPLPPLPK
Protocol: as §1

CDK12–cyclin K and DDB1 = biological target: T2, CDK12–cyclin K and DDB1 (Homo sapiens, UniProt Q16531+Q9NYV4, K965R); experiment: TR-FRET ternary complex formation assay (compound titration); assay type: binding
T2 construct: His6–CDK12 (a.a. 713–1,052); full-length or beta-propeller B domain deletion (ΔBPB: a.a. 396–705 deleted) constructs of His6–DDB1ΔBPB, StrepII–Avi–DDB1, or His6–Spy–DDB1; made in house; host or cells: Trichoplusia ni High Five insect cells (baculovirus)
T2 sequence (Q9NYV4 713-1052 K965R): as the sequence (Q9NYV4 713-1052) above, with K253R counted along it
T2 sequence (O75909 1-267 partner): as the sequence (O75909 1-267 partner limits assumed) above
T2 sequence (Q16531 whole entry): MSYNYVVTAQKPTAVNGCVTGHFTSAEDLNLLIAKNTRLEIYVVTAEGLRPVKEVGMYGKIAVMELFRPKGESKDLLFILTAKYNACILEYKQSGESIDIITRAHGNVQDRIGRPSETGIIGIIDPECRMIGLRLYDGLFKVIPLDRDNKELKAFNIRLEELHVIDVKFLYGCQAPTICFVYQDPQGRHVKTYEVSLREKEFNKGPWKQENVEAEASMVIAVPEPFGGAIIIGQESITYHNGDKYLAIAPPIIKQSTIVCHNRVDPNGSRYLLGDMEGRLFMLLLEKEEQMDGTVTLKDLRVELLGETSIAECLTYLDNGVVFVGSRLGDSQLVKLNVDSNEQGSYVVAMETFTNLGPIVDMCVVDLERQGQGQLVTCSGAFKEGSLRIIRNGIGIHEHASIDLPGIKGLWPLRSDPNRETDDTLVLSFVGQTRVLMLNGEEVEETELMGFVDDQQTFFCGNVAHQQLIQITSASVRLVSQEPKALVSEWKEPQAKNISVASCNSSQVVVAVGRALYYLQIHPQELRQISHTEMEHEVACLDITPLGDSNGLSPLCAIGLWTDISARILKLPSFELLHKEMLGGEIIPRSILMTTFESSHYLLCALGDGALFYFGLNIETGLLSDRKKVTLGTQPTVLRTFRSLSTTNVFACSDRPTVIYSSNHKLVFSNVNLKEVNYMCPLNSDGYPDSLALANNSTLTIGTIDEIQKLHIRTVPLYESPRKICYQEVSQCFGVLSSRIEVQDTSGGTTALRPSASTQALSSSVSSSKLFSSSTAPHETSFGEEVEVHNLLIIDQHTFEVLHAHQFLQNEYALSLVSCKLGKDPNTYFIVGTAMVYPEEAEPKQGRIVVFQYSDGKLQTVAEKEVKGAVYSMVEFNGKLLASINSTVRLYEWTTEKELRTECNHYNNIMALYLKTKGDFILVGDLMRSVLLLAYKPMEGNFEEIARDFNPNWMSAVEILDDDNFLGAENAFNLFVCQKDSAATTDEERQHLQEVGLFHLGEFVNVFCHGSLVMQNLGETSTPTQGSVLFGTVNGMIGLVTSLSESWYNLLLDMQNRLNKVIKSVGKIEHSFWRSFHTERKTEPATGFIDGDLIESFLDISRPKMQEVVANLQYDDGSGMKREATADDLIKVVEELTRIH
In short: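 Background fluorescence is reduced by reading 70 μs after excitation, and complex formation is followed as the 520:490 nm fluorescence ratio.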

CDK2–cyclin A = biological target: T3, CDK2–cyclin A (Homo sapiens, UniProt P24941); experiment: Lanthascreen kinase binding assay, CDK2; settings: for Lanthascreen signal, sheet CDK2: raw replicates, experiment r1-r11
T3 construct: purchased Thermo Fisher
Protocol: as §1

[1] = system: cyclin K–eGFP degradation reporter; experiment: Cyclin K reporter stability analysis (dual-color cyclin K–eGFP reporter); assay type: cell-based, human; settings: source data sheet correlations; read-out: DC50
In short: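 HEK293T–Cas9 cells carrying the cyclin K–eGFP reporter were seeded at 1 × 10^6 ml^−1 and exposed to drug or DMSO for 5 h. Flow cytometry gave geometric means of eGFP and mCherry in round, mCherry-positive cells. The eGFP/mCherry ratio was normalized to the mean of three DMSO controls.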

HEK293T cells = experiment: Drug sensitivity assay (CellTiter-Glo viability) with or without MLN4924 pretreatment; assay type: cell-based, human; settings: Supplementary Table 2
In short: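 First, cells (HEK293T–Cas9, 0.15 × 10^6 ml^−1) are exposed to DMSO or 100 nM MLN4924. Next, drugs follow at 2 h. Finally, CellTiter-Glo is read at day 3 and normalised to DMSO.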

Lanthascreen raw signal, sheet CDK12 (CDK12–cyclin K; compound 1.02544 nM): 0.01144 and 0.008554
Lanthascreen raw signal, sheet CDK12 (CDK12–cyclin K; compound 3.15521 nM): 0.008537 and 0.009228
Lanthascreen raw signal, sheet CDK12 (CDK12–cyclin K; compound 9.46563 nM): 0.008646 and 0.00887
Lanthascreen raw signal, sheet CDK12 (CDK12–cyclin K; compound 31.5521 nM): 0.00802 and 0.006596
Lanthascreen raw signal, sheet CDK12 (CDK12–cyclin K; compound 99.3891 nM): 0.007448 and 0.007338
Lanthascreen raw signal, sheet CDK12 (CDK12–cyclin K; compound 315.521 nM): 0.006013 and 0.008259
Lanthascreen raw signal, sheet CDK12 (CDK12–cyclin K; compound 3155.21 nM): 0.007185 and 0.006229
Lanthascreen raw signal, sheet CDK12 (CDK12–cyclin K; compound 10002 nM): 0.005174 and 0.004623
IC50 (CDK9–cyclin T; Lanthascreen, average, Extended Data Fig. 8, read-out: CDK9 IC50): > 10000 nM
IC50 (CDK9–cyclin T; Supplementary Table 2, read-out: Lanthascreen IC50 [nM] CDK9): > 10000 nM
Lanthascreen TR-FRET signal (raw ratio), sheet CDK9 (CDK9–cyclin T; compound 1.02544 nM): 0.01262 and 0.01798
Lanthascreen TR-FRET signal (raw ratio), sheet CDK9 (CDK9–cyclin T; compound 3.15521 nM): 0.01403 and 0.01513
Lanthascreen TR-FRET signal (raw ratio), sheet CDK9 (CDK9–cyclin T; compound 9.46563 nM): 0.01561 and 0.01591
Lanthascreen TR-FRET signal (raw ratio), sheet CDK9 (CDK9–cyclin T; compound 31.5521 nM): 0.01447 and 0.01334
Lanthascreen TR-FRET signal (raw ratio), sheet CDK9 (CDK9–cyclin T; compound 99.3891 nM): 0.01493 and 0.01478
Lanthascreen TR-FRET signal (raw ratio), sheet CDK9 (CDK9–cyclin T; compound 315.521 nM): 0.01351 and 0.01148
Lanthascreen TR-FRET signal (raw ratio), sheet CDK9 (CDK9–cyclin T; compound 3155.21 nM): 0.008801 and 0.0091
Lanthascreen TR-FRET signal (raw ratio), sheet CDK9 (CDK9–cyclin T; compound 10002 nM): 0.004226 and 0.004622
TR-FRET signal at compound concentration 0.468 nM (CDK12–cyclin K and DDB1; compound concentration 0.468 nM, raw replicate titration data): 0.2748 and 0.2878
TR-FRET signal at compound concentration 2.16 nM (CDK12–cyclin K and DDB1; compound concentration 2.16 nM, raw replicate titration data): 0.3281 and 0.3452
TR-FRET signal at compound concentration 3.6 nM (CDK12–cyclin K and DDB1; compound concentration 3.6 nM, raw replicate titration data): 0.4287 and 0.4479
TR-FRET signal at compound concentration 7.92001 nM (CDK12–cyclin K and DDB1; compound concentration 7.92001 nM, raw replicate titration data): 0.6146 and 0.6538
TR-FRET signal at compound concentration 15.84 nM (CDK12–cyclin K and DDB1; compound concentration 15.84 nM, raw replicate titration data): 0.9627 and 1.0618
TR-FRET signal at compound concentration 30.96 nM (CDK12–cyclin K and DDB1; compound concentration 30.96 nM, raw replicate titration data): 1.485 and 1.709
TR-FRET signal at compound concentration 62.6401 nM (CDK12–cyclin K and DDB1; compound concentration 62.6401 nM, raw replicate titration data): 2.204 and 2.463
TR-FRET signal at compound concentration 125.28 nM (CDK12–cyclin K and DDB1; compound concentration 125.28 nM, raw replicate titration data): 2.739 and 3.004
TR-FRET signal at compound concentration 244.8 nM (CDK12–cyclin K and DDB1; compound concentration 244.8 nM, raw replicate titration data): 3.0364 and 3.323
TR-FRET signal at compound concentration 993.601 nM (CDK12–cyclin K and DDB1; compound concentration 993.601 nM, raw replicate titration data): 3.365 and 3.564
TR-FRET signal at compound concentration 2001.6 nM (CDK12–cyclin K and DDB1; compound concentration 2001.6 nM, raw replicate titration data): 3.296 and 3.552
EC50 (CDK12–cyclin K and DDB1; in vitro complex formation, 50 nM CDK12–cyclin K, 100 nM DDB1, text and figures, read-out: TR-FRET EC50): 41 ± 2 nM
EC50 (CDK12–cyclin K and DDB1; sheet MOESM7, read-out: log TR-FRET EC50 (converted)): 40.9 nM
EC50 (CDK12–cyclin K and DDB1; source data sheet correlations, read-out: TR-FRET EC50): 40.9 nM
Lanthascreen signal, sheet CDK2 (CDK2–cyclin A; Compound 1.02544 nM): 0.01032 and 0.009036
Lanthascreen signal, sheet CDK2 (CDK2–cyclin A; Compound 3.15521 nM): 0.009561 and 0.01039
Lanthascreen signal, sheet CDK2 (CDK2–cyclin A; Compound 9.46563 nM): 0.01132 and 0.01064
Lanthascreen signal, sheet CDK2 (CDK2–cyclin A; Compound 31.5521 nM): 0.009578 and 0.01231
Lanthascreen signal, sheet CDK2 (CDK2–cyclin A; Compound 99.3891 nM): 0.0112 and 0.01036
Lanthascreen signal, sheet CDK2 (CDK2–cyclin A; Compound 315.521 nM): 0.00859 and 0.007854
Lanthascreen signal, sheet CDK2 (CDK2–cyclin A; Compound 3155.21 nM): 0.006995 and 0.007302
Lanthascreen signal, sheet CDK2 (CDK2–cyclin A; Compound 10002 nM): 0.004999 and 0.005409
IC50 (CDK2–cyclin A; Supplementary Table 2, read-out: Lanthascreen IC50 [nM] CDK2): 4960 nM
DC50 [1]: 62 nM
Compound: CC[C@H](CO)Nc1nc(NCc2nc3c(F)c(F)ccc3[nH]2)c2ncn(C(C)C)c2n1 [DS64]
EC50 (HEK293T cells; Homo sapiens, HEK-293T, HEK293T viability, 72 h, compound alone, read-out: Cellular assays EC50): 527 nM
Toxicity rescue (HEK293T cells; MLN4924-mediated cytotoxicity rescue, 10 µM used where n.d.): 971%
